According to paper PMC6748948, “A Bone Morphogenetic Protein (BMP)-derived Peptide Based on the Type I Receptor-binding Site Modifies Cell-type Dependent BMP Signalling” (Scientific Reports, 2019):
Peptide text beside a SMILES is read from it.

Experiments:
ALK1 = details: read-out: affinity of ALK1 for BMP9; cited from earlier work
Experimental: (§1) It is intriguing why the same peptide could promote BMP9 signalling in PAECs while inhibit BMP4 signalling in HMECs, an effect which is also recapitulated in the SPR binding studies (Fig. 4A–D, Supplemental Fig. 4). Whilst it is difficult to provide a direct structural explanation, this may relate to the difference in affinities and concentrations of the receptors for the ligands. ALK1 binds BMP9 with affinity of around 0.03 nM[8]. The reported KD values of BMP4 for ALK3 (with ALK3 expressed from different host cells) are 1–10 nM[30],[31]. It is plausible that the inhibitory effect of P3 on BM ...

ALK3 = ALK3 expressed from different host cells; read-out: KD values of BMP4 for ALK3; cited from earlier work
Experimental: as §1

[1] = system: Smad1/5 phosphorylation in HMEC-1; assay: BMP4-induced Smad1/5 phosphorylation in HMEC-1; type: cell-based, human; details: peptide 250 μM, BMP4 0.3 ng/ml (11.54 pM GFD dimer), N = 3
BMP4 binding to ALK3-Fc = assay: SPR, BMP4 binding to ALK3-Fc in the presence of peptide; details: BMP4 50 nM, peptide 0.25-1 mM, compared with P3
Experimental: Peptide-receptor binding assays were performed using Biacore T200 biosensor (Biacore/GE Healthcare). ALK1-Fc, ALK2-Fc or ALK3-Fc was covalently linked onto individual flow cells of a research grade CM5 chip (GE Healthcare) via amine-coupling using standard manufacturer’s protocol. One flow cell was used as a control for subtracting non-specific binding. Peptides were injected over the immobilised chip at various concentrations up to 1 mM at a flow rate of 30 μl/min for 3 min at 37 °C in running buffer containing 0.01 M HEPES, 0.5 M NaCl, 3 mM EDTA and 0.005% v/v Surfactant P20 (pH 7.4). At the end of each peptide injection, the chip surface was regenerated with 4 M Guanidine hydrochloride (GnHCl). The biotinylated peptide P3* was immobilised onto a streptavidin (SA) chip (GE Healthcare) following the manufacturer’s protocol. Binding assays were carried out using a similar protocol as described above, only with a different injection time of 4 min. For BMP9-ALK1 and BMP4-ALK3 binding assays, BMP9 and BMP4 were added at 50 nM alone or in the presence of peptide P3 or P3r at 0.25 mM, 0.5 mM or 1 mM. Each cycle was set with a dissociation time of 12 min. Duplicated injections were performed for each ligand along with buffer blanks. The equilibrium dissociation constant KD was determined by fitting the data to a steady-state model using BIAevaluation software (GE Healthcare). […]

[2] = system: ALP activity in C2C12 cells; assay: BMP9-induced ALP activity in C2C12 cells; type: cell-based, mouse; details: peptide 160 μM with BMP9, 65 h, DMEM 0.25% FBS, three independent experiments in duplicate
Experimental: C2C12 mouse myoblasts were seeded in 24-well plates at 25,000 cells/well with antibiotics for 48 h. Treatments were performed in DMEM, 0.25% FBS with antibiotics in a final volume of 1.1 ml for 65 h. Cells were harvested and lysed in 1% Triton-X100 in PBS and the extracted total protein was quantified by Bio-Rad DC^TM protein assay (Bio-Rad). ALP activity was determined by incubating 15 μg of the total protein with ALP substrate p-nitrophenyl phosphate (PNPP, Sigma-Aldrich) and absorbance of the product p-nitrophenol (PNP) was recorded at 405 nm in 5 min intervals for 1 h. The relative ALP activity was expressed as fold change to the BMP9-treated control with data presented as means ± S.E.

[3] = system: Smad1/5 phosphorylation in hPAECs; assay: BMP9-induced Smad1/5 phosphorylation assay in hPAECs (immunoblot); type: cell-based, human; details: BMP9 0.03 ng/ml (1.24 pM GFD dimer), peptide 250 μM (P3 also dose-dependent), 40 min, serum-starved, immunoblot densitometry
Experimental: Endothelial cells were seeded in 6-cm dishes at 9 × 10^5 cells/dish and cultured for 24 hours (h) to full confluence, and then serum-starved for 16 h before treatments with control buffer, BMP9 alone, BMP9 with peptides, or peptides alone. After 40 min, cells were washed once with PBS and snap-frozen on dry ice to harvest. Cells were then lysed with buffer containing 125 mM Tris-HCl (pH 6.8), 2% SDS and 10% glycerol. The total protein concentration was determined using the DC^TM protein assay (Bio-Rad), of which 30 μg of total cell proteins was fractionated on 12% SDS-PAGE under non-reducing condition. The phosphorylation of Smad1/5 and total Smad1 were detected by anti-phospho-Smad1/5 antibody (9516 S) and anti-Smad 1 antibody (9743 S). The intensity of pSmad1/5 bands were quantified using ImageJ software, using β-actin or α-tubulin as the loading control.

## BMP9: bone morphogenetic protein 9, growth factor
ALK1
  Kd: ~0.03 nM

## BMP4: bone morphogenetic protein 4, growth factor
ALK3
  Kd: 1 to 10 nM

## CC[C@H](C)[C@H](NC(=O)[C@H](CC(=O)O)NC(=O)[C@@H](NC(=O)[C@@H](NC(=O)[C@H](CCCCN)NC(=O)[C@H](Cc1ccccc1)NC(=O)[C@@H](NC(=O)[C@H](CCCCN)NC(=O)[C@H](CC(=O)O)NC(=O)[C@H](CC(C)C)NC(=O)[C@H](CCC(N)=O)NC(=O)[C@H](C)NC(=O)[C@@H]1CCCN1C(=O)[C@@H](NC(=O)[C@@H](NC(=O)[C@H](CS)NC(=O)[C@@H](NC(=O)[C@@H]1CCCN1)[C@@H](C)O)[C@@H](C)O)[C@@H](C)O)C(C)C)[C@@H](C)O)[C@@H](C)O)C(=O)N[C@@H](Cc1c[nH]cn1)C(=O)N[C@@H](Cc1ccccc1)C(=O)N[C@@H](CS)C(=O)N[C@@H](Cc1c[nH]cn1)C(=O)N[C@@H](CC(C)C)C(=O)O [Peptide P3r] (H-PTCTTPAQLDKVFKTTDIHFCHL-OH; N-terminus and C-terminus assumed)
[1]
  effect on BMP4-induced Smad1/5 phosphorylation in HMEC-1: failed to inhibit
BMP4 binding to ALK3-Fc
  competing BMP4 binding to ALK3 (in words): much less effective
[2]
  effect on BMP9-induced ALP activity in C2C12 cells: No difference
[3]
  effect on BMP9-induced Smad1/5 phosphorylation in hPAECs: significantly enhanced
